Results published in ChEMBL document CHEMBL1201862, “PubChem BioAssay data set” (2004).
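Method: 48-hour compound exposure of cells in 96-well plates, five concentrations, linear interpolation of endpoints. GI50 marks 50% less growth.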 Active and inactive are the calls of the source. No stated cut-off is given here; in the data, active = GI50 up to about 1.1 µM and inactive = higher.

Key:
Experiment in all cases: DTP human tumour cell line panel, 48 h
A549 = test system: A549
ACHN = test system: ACHN
BT-549 = test system: BT-549
CCRF-CEM = test system: CCRF-CEM
EKVX = test system: EKVX
HL-60 = test system: HL-60
HOP-92 = test system: HOP-92
Hs-578T = test system: Hs-578T
K562 = test system: K562
MDA-MB-231 = test system: MDA-MB-231
MDA-N = test system: MDA-N
NCI-H460 = test system: NCI-H460
SF-295 = test system: SF-295
SK-MEL-2 = test system: SK-MEL-2
SK-MEL-5 = test system: SK-MEL-5
SK-OV-3 = test system: SK-OV-3
U-251 = test system: U-251
COLO 205 = test system: COLO 205
SK-MEL-28 = test system: SK-MEL-28

Measured: GI50

O=C(Cc1ccc([N+](=O)[O-])cc1)OCC#CCOC(=O)Cc1ccc([N+](=O)[O-])cc1
inactive: A549 > 10 µM | ACHN > 10 µM | BT-549 > 10 µM | CCRF-CEM > 10 µM | EKVX > 10 µM | HL-60 > 10 µM | HOP-92 > 10 µM | Hs-578T > 10 µM | K562 > 10 µM | MDA-MB-231 > 10 µM | MDA-N > 10 µM | NCI-H460 > 10 µM | SF-295 > 10 µM | SK-MEL-2 > 10 µM | SK-MEL-5 > 10 µM | SK-OV-3 > 10 µM | U-251 > 10 µM

O=C1Nc2cc([N+](=O)[O-])ccc2N/C1=C/C(=O)c1ccc(Cl)cc1
inactive: A549 10 µM | ACHN 15.1 µM | BT-549 5.27 µM | CCRF-CEM 10.5 µM | COLO 205 24.4 µM | EKVX 15.7 µM | HL-60 19.8 µM | HOP-92 16 µM | Hs-578T 11.5 µM | K562 3.64 µM | MDA-MB-231 5.83 µM | MDA-N 24.3 µM | NCI-H460 8.34 µM | SF-295 13.3 µM | SK-MEL-28 10.6 µM | SK-MEL-2 16.9 µM | SK-MEL-5 15.9 µM | SK-OV-3 19.4 µM | U-251 6.56 µM

COc1nc2c(c(=O)n1C)N[C@H]1[C@H](OC(C)=O)[C@@H](OC(C)=O)CO[C@H]1N2
inactive: A549 > 100 µM | ACHN > 100 µM | BT-549 > 100 µM | CCRF-CEM > 10 µM | COLO 205 > 100 µM | EKVX > 100 µM | HL-60 > 100 µM | HOP-92 > 100 µM | Hs-578T > 100 µM | K562 > 100 µM | MDA-MB-231 > 100 µM | MDA-N > 100 µM | NCI-H460 > 100 µM | SF-295 > 100 µM | SK-MEL-28 > 100 µM | SK-MEL-2 > 100 µM | SK-MEL-5 > 100 µM | SK-OV-3 > 100 µM | U-251 > 100 µM

COc1cc2oc(-c3ccc(O)cc3)cc(=O)c2c(OC)c1O
inactive: A549 89.9 µM | ACHN 32.7 µM | BT-549 67.9 µM | CCRF-CEM > 100 µM | COLO 205 > 100 µM | EKVX > 100 µM | HL-60 21.2 µM | HOP-92 27.9 µM | Hs-578T 58.5 µM | K562 60.5 µM | MDA-MB-231 46.9 µM | MDA-N > 100 µM | NCI-H460 45.7 µM | SF-295 62.5 µM | SK-MEL-28 > 100 µM | SK-MEL-2 > 100 µM | SK-MEL-5 49.4 µM | SK-OV-3 30.5 µM | U-251 38.9 µM

Cc1nc(SCC(=O)Nc2ccccc2)c2sc(=S)n(-c3ccccc3)c2n1
inactive: A549 > 10 µM | ACHN > 10 µM | BT-549 > 10 µM | CCRF-CEM > 10 µM | COLO 205 > 10 µM | EKVX > 10 µM | HL-60 > 10 µM | HOP-92 > 10 µM | Hs-578T 4.25 µM | MDA-MB-231 6.18 µM | MDA-N > 10 µM | NCI-H460 > 10 µM | SF-295 > 10 µM | SK-MEL-28 > 10 µM | SK-MEL-2 > 10 µM | SK-MEL-5 > 10 µM | SK-OV-3 > 10 µM | U-251 8.87 µM

Cc1ccc(NC(=O)/C(Cc2cc(=O)oc3cc(O)ccc23)=N\NC(C)(C)C)cc1C
inactive: A549 > 100 µM | ACHN > 100 µM | BT-549 > 100 µM | CCRF-CEM > 100 µM | COLO 205 > 100 µM | HL-60 > 100 µM | HOP-92 > 100 µM | Hs-578T > 100 µM | K562 > 100 µM | MDA-MB-231 > 100 µM | MDA-N > 100 µM | NCI-H460 > 100 µM | SF-295 > 100 µM | SK-MEL-28 > 100 µM | SK-MEL-2 > 100 µM | SK-MEL-5 > 100 µM | SK-OV-3 > 100 µM | U-251 > 100 µM
